Tested on: not listed separately
Assay: Cytotoxicity against human PC3 cells after 48 hrs by MTT assay
Format: functional, cell-based
Details: PC-3, 48 h
Work on `O=c1ccc2cc(OCc3cc(-c4ccccc4Cl)no3)ccc2o1` yielded an IC50 of 18.2 µM.
Work on `O=c1ccc2cc(OCc3cc(-c4ccccc4[N+](=O)[O-])no3)ccc2o1` yielded an IC50 of 8.2 µM.
For `O=c1ccc2cc(OCc3cn(-c4cccc([N+](=O)[O-])c4)nn3)ccc2o1`, the IC50 was 49.3 µM.
For `O=c1ccc2cc(OCc3cc(-c4ccccc4)no3)ccc2o1`, the IC50 was 53.2 µM.
Work on `N#Cc1ccccc1-c1cc(COc2ccc3oc(=O)ccc3c2)on1` yielded an IC50 of 13.6 µM.
`COc1ccccc1-c1cc(COc2ccc3oc(=O)ccc3c2)on1` showed an IC50 of 22.4 µM.
Compound `Cn1c(=O)n(-c2ccc(C(C)(C)C#N)cc2)c2c3cc(-c4cnc5ccccc5c4)ccc3ncc21` [DACTOLISIB] has an IC50 of 12.3 µM.

Tested on: COLO 205
Assay: Cytotoxicity against human COLO205 cells after 48 hrs by MTT assay
Format: functional, cell-based
Details: COLO 205, 48 h
`COc1ccc(-n2cc(COc3ccc4oc(=O)ccc4c3)nn2)cc1` gave an IC50 of 32.8 µM.
`O=c1ccc2cc(OCc3cn(-c4cccc([N+](=O)[O-])c4)nn3)ccc2o1` showed an IC50 of 36.6 µM.
Work on `O=c1ccc2cc(OCc3cn(-c4ccc([N+](=O)[O-])cc4)nn3)ccc2o1` yielded an IC50 of 48.7 µM.
`O=c1ccc2cc(OCc3cc(-c4ccc5ccccc5c4)no3)ccc2o1` showed an IC50 of 48.7 µM.
`O=c1ccc2cc(OCc3cc(-c4ccc(Cl)cc4)no3)ccc2o1` gave an IC50 of 44.5 µM.
`O=c1ccc2cc(OCc3cc(-c4cccc([N+](=O)[O-])c4)no3)ccc2o1` showed an IC50 of 48.3 µM.
Compound `O=c1ccc2cc(OCc3cc(-c4cccc(Cl)c4)no3)ccc2o1` has an IC50 of 32.5 µM.
`O=c1ccc2cc(OCc3cc(-c4ccc([N+](=O)[O-])cc4)no3)ccc2o1` showed an IC50 of 47.8 µM.
Compound `Cn1c(=O)n(-c2ccc(C(C)(C)C#N)cc2)c2c3cc(-c4cnc5ccccc5c4)ccc3ncc21` [DACTOLISIB] has an IC50 of 0.085 µM.
With `O=c1ccc2cc(O)ccc2o1` [6-HYDROXYCOUMARIN] the IC50 was 38.7 µM.
In the case of `O=c1ccc2cc(OCc3cc(-c4cccc5ccccc45)no3)ccc2o1`, the IC50 is reported as 47.2 µM.
Compound `O=c1ccc2cc(OCc3cn(-c4ccccc4)nn3)ccc2o1` has an IC50 of 48.8 µM.

Tested on: not listed separately
Assay: Cytotoxicity against human HCT116 cells after 48 hrs by MTT assay
Format: functional, cell-based
Details: HCT-116, 48 h
For `COc1ccc(-n2cc(COc3ccc4oc(=O)ccc4c3)nn2)cc1`, the IC50 was 37.8 µM.
`O=c1ccc2cc(OCc3cn(-c4cccc([N+](=O)[O-])c4)nn3)ccc2o1` showed an IC50 of 26.9 µM.
For `O=c1ccc2cc(OCc3cn(-c4ccc([N+](=O)[O-])cc4)nn3)ccc2o1`, the IC50 was 44.3 µM.
With `O=c1ccc2cc(OCc3cn(-c4ccccc4[N+](=O)[O-])nn3)ccc2o1` the IC50 was 55.8 µM.
Work on `O=c1ccc2cc(OCc3cc(-c4ccc5ccccc5c4)no3)ccc2o1` yielded an IC50 of 55.9 µM.
`O=c1ccc2cc(OCc3cc(-c4ccc(Cl)cc4)no3)ccc2o1` gave an IC50 of 55.8 µM.
Work on `O=c1ccc2cc(OCc3cc(-c4cccc([N+](=O)[O-])c4)no3)ccc2o1` yielded an IC50 of 48.2 µM.
`O=c1ccc2cc(OCc3cc(-c4cccc(Cl)c4)no3)ccc2o1` showed an IC50 of 42.1 µM.
With `O=c1ccc2cc(OCc3cc(-c4ccc([N+](=O)[O-])cc4)no3)ccc2o1` the IC50 was 42.2 µM.
Compound `Cn1c(=O)n(-c2ccc(C(C)(C)C#N)cc2)c2c3cc(-c4cnc5ccccc5c4)ccc3ncc21` [DACTOLISIB] has an IC50 of 0.044 µM.
Work on `O=c1ccc2cc(O)ccc2o1` [6-HYDROXYCOUMARIN] yielded an IC50 of 46.2 µM.
In the case of `O=c1ccc2cc(OCc3cc(-c4cccc5ccccc45)no3)ccc2o1`, the IC50 is reported as 51.5 µM.
With `O=c1ccc2cc(OCc3cn(-c4ccccc4)nn3)ccc2o1` the IC50 was 51.5 µM.
With `O=c1ccc2cc(OCc3cn(-c4ccc(Cl)c(Cl)c4)nn3)ccc2o1` the IC50 was 57.3 µM.

Tested on: not listed separately
Assay: Cytotoxicity against human HL60 cells after 48 hrs by MTT assay
Format: functional, cell-based
Details: HL-60, 48 h
Compound `COc1ccccc1-n1cc(COc2ccc3oc(=O)ccc3c2)nn1` has an IC50 of 55.2 µM.
For `N#Cc1ccccc1-n1cc(COc2ccc3oc(=O)ccc3c2)nn1`, the IC50 was 52.1 µM.
Compound `COc1ccc(-n2cc(COc3ccc4oc(=O)ccc4c3)nn2)cc1` has an IC50 of 46.4 µM.
For `O=c1ccc2cc(OCc3cn(-c4cccc([N+](=O)[O-])c4)nn3)ccc2o1`, the IC50 was 20.5 µM.
For `O=c1ccc2cc(OCc3cn(-c4ccc([N+](=O)[O-])cc4)nn3)ccc2o1`, the IC50 was 46 µM.
`O=c1ccc2cc(OCc3cn(-c4ccccc4[N+](=O)[O-])nn3)ccc2o1` showed an IC50 of 44.6 µM.
Work on `O=c1ccc2cc(OCc3cc(-c4ccccc4)no3)ccc2o1` yielded an IC50 of 43.3 µM.
`O=c1ccc2cc(OCc3cc(-c4ccc5ccccc5c4)no3)ccc2o1` showed an IC50 of 55.7 µM.
For `O=c1ccc2cc(OCc3cc(-c4ccc(Cl)cc4)no3)ccc2o1`, the IC50 was 44.6 µM.
Work on `O=c1ccc2cc(OCc3cc(-c4cccc([N+](=O)[O-])c4)no3)ccc2o1` yielded an IC50 of 44.4 µM.
In the case of `O=c1ccc2cc(OCc3cc(-c4cccc(Cl)c4)no3)ccc2o1`, the IC50 is reported as 50.6 µM.
`O=c1ccc2cc(OCc3cc(-c4ccc([N+](=O)[O-])cc4)no3)ccc2o1` showed an IC50 of 55.8 µM.
For `CC(=O)Nc1ccc(-n2cc(COc3ccc4oc(=O)ccc4c3)nn2)cc1`, the IC50 was 40.4 µM.
Work on `Cn1c(=O)n(-c2ccc(C(C)(C)C#N)cc2)c2c3cc(-c4cnc5ccccc5c4)ccc3ncc21` [DACTOLISIB] yielded an IC50 of 12.4 µM.
Compound `O=c1ccc2cc(O)ccc2o1` [6-HYDROXYCOUMARIN] has an IC50 of 35 µM.
With `O=c1ccc2cc(OCc3cc(-c4cccc5ccccc45)no3)ccc2o1` the IC50 was 41.6 µM.
Work on `O=c1ccc2cc(OCc3cn(-c4ccccc4)nn3)ccc2o1` yielded an IC50 of 41.6 µM.
For `O=c1ccc2cc(OCc3cn(-c4ccc(Cl)c(Cl)c4)nn3)ccc2o1`, the IC50 was 47.8 µM.

Tested on: A549
Assay: Cytotoxicity against human A549 cells after 48 hrs by MTT assay
Format: functional, cell-based
Details: A549, 48 h
For `O=c1ccc2cc(OCc3cn(-c4ccccc4Cl)nn3)ccc2o1`, the IC50 was 17.1 µM.
Work on `COc1ccccc1-n1cc(COc2ccc3oc(=O)ccc3c2)nn1` yielded an IC50 of 18.7 µM.
`N#Cc1ccccc1-n1cc(COc2ccc3oc(=O)ccc3c2)nn1` gave an IC50 of 12.6 µM.
`COc1ccc(-n2cc(COc3ccc4oc(=O)ccc4c3)nn2)cc1` showed an IC50 of 46.8 µM.
Work on `O=c1ccc2cc(OCc3cn(-c4ccc([N+](=O)[O-])cc4)nn3)ccc2o1` yielded an IC50 of 33.6 µM.
`O=c1ccc2cc(OCc3cn(-c4ccccc4[N+](=O)[O-])nn3)ccc2o1` showed an IC50 of 10.2 µM.
With `O=c1ccc2cc(OCc3cc(-c4cccc([N+](=O)[O-])c4)no3)ccc2o1` the IC50 was 36.2 µM.
`N#Cc1ccccc1-c1cc(COc2ccc3oc(=O)ccc3c2)on1` showed an IC50 of 55.8 µM.
Compound `N#CCc1ccc(-n2cc(COc3ccc4oc(=O)ccc4c3)nn2)cc1` has an IC50 of 29.2 µM.
For `Cn1c(=O)n(-c2ccc(C(C)(C)C#N)cc2)c2c3cc(-c4cnc5ccccc5c4)ccc3ncc21` [DACTOLISIB], the IC50 was 6.5 µM.
Work on `O=c1ccc2cc(OCc3cn(-c4cccc(CO)c4)nn3)ccc2o1` yielded an IC50 of 35.1 µM.
Compound `C#CCOc1ccc2oc(=O)ccc2c1` has an IC50 of 24 µM.
